Test results reported in US5585373A, “3-(7'-oxo-1'-aza-4'-oxabicyclo[3.2.0]-hept-3'-YL)propionic acid derivative as antitumor agent” (priority 1994, dated 1996).
In brackets after ≈: the same amount, converted by molar mass.

Experiments:
KB cells = test: In Vitro KB Cell Cytotoxicity Assay; format: cell-based; conditions: Homo sapiens, 72 h, crystal violet staining, 3 days incubation
Description: Pharmacological Test 1 (In Vitro KB Cell Cytotoxicity Assay)
The cytotoxicity against KB cells was determined in accordance with a protein staining method (Grillis et al., Anal. Biochem., 159, 109 (1986)) using crystal violet. Stated more specifically, KB cells were incubated in an Eagle's minimum medium containing 10% FCS in a CO2 incubator at 37° C. The number of the cells was counted with a hemocytometer. A 100 μl quantity of the cell suspension, 3×10^4 cells/ml, was placed into each well of a 96-well plate and incubated for 24 hours. Portions (100 μl) of the drug diluted to final concentrations of 10, 1, 0.1, 0.01 and 0.001 μg/ml were added, as one dosage, to three wells, respectively. A drug-free medium was added to the wells of the control group. After incubation for 3 days, 25 μl of 25% glutaraldehyde was added and fixed for 15 minutes, followed by washing with water and drying. A 100 μl quantity of 0.05% crystal violet was added for 15 minutes of staining, followed by washing with water and drying. Extraction was performed with 100 μl of 0.05M NaH2 PO4 /EtOH (1:1 volume ratio). The absorbance was measured at a wavelength of 540 nm with a multi-scan spectrophotometer. The percent cell growth inhibition was calculated based on the absorbance by the following equation [formula]
The IC50 value (concentration of the drug for inhibiting the cell growth by 50%) was calculated through log-logit transformation of the dose-response curve and linear regression.

Sarcoma 180 = test: In Vivo Antitumor Activity against Sarcoma 180; conditions: for Mortality in 12 days: intraperitoneal, every four days, three times, ICR mice; for Cell growth inhibition rate: ip
Description: Pharmacological Test 2 (In Vivo Antitumor Activity against Sarcoma 180)
5×10^6 cells of transplantable mouse tumor, Sarcoma 180, were subcutaneously transplanted in the dorsal portion of 6-week-old male ICR mice (6-7 mice in each group). The test drug was dissolved in physiological saline containing 0.25 % Tween 80 and 3.5% dimethyl sulfoxide. The solution was intraperitoneally administered to the mice every four days, starting the administration 24 hours after the transplantation, three times in total. On the 12th day after the transplantation, the tumors were removed from the bodies and weighed. The average weight of the tumors in the test group and the corresponding weight in the control group were calculated to determine the ratio of tumor growth inhibition.

Row | SMILES | IC50 (KB cells) [µg/mL] | further results
1 | CC(=O)O[C@@H]([C@H]1CN2C(=O)C[C@@H]2O1)[C@@H](N)C(=O)O [Compound 12a, 3(R)-acetoxy-2(R)-amino-3-[(3'R,5'S)-7'-oxo-1'-aza-4'-oxabicyclo[3.2.0]hept-3'-yl]propionic acid] | 3 (≈ 11.6 µM) | –
2 | O=C(OCc1ccccc1)[C@@H](O)[C@@H](O)[C@H]1CN2C(=O)C[C@@H]2O1 [Compound 6, benzyl (2S,3R)-2,3-dihydroxy-3-[(3'R,5'S)-7'-oxo-1'-aza-4'-oxabicylo[3.2.0]hept-3'-yl]propionate] | 0.09 (≈ 0.293 µM) | –
3 | COc1ccc(CO[C@H]([C@H](N)C(=O)O)[C@H]2CN3C(=O)C[C@@H]3O2)cc1 [Compound 32d, 3-[(3'R,5'S)-7'-oxo-1'-aza-4'-oxabicyclo[3.2.0]hept-3'-yl]-2(S)-amino-3(R)-(4"-methoxybenzyl)oxypropionic acid] | 0.09 (≈ 0.268 µM) | –
4 | CO[C@H]([C@H](N)C(=O)O)[C@H]1CN2C(=O)C[C@@H]2O1 [Compound 32a, 3-[(3'R,5'S)-7'-oxo-1'-aza-4'-oxabicyclo[3.2.0]hept-3'-yl]-2(S)-amino-3(R)-methoxypropionic acid] | 0.03 (≈ 0.13 µM) | –
5 | O=C(OCc1ccccc1)[C@@H](O)[C@H](O)[C@H]1CN2C(=O)C[C@@H]2O1 [Compound 5, benzyl(2S,3S)-2,3-dihydroxy-3-[(3'R,5'S)-7'-oxo-1'-aza-4'-oxabicyclo[3.2.0]hept-3'-yl]propionate] | 0.3 (≈ 0.976 µM) | –
6 | N[C@@H](C(=O)O)[C@@H](OC(=O)c1ccccc1)[C@H]1CN2C(=O)C[C@@H]2O1 [Compound 12b, 2(R)-amino-3(R)-benzoyloxy-3-[(3'R,5'S)-7'-oxo-1'-aza-4'-oxabicyclo[3.2.0]hept-3'-yl]propionic acid] | 0.3 (≈ 0.937 µM) | Mortality in 12 days (Sarcoma 180; 5 mg/kg/day): 0/7; Mortality in 12 days (Sarcoma 180; 10 mg/kg/day): 0/7; Mortality in 12 days (Sarcoma 180; 20 mg/kg/day): 0/7; Cell growth inhibition rate (Sarcoma 180; 5 mg/kg): 19%; Cell growth inhibition rate (Sarcoma 180; 10 mg/kg): 19%; Cell growth inhibition rate (Sarcoma 180; 20 mg/kg): 31%
7 | O=C(OC(c1ccccc1)c1ccccc1)[C@H]([C@@H](OCc1ccccc1)[C@H]1CN2C(=O)C[C@H]2O1)N(Cc1ccccc1)C(=O)OCc1ccccc1 [Compound 43, diphenylmethyl 3-[(3'R,5'R)-7'-oxo-1'-aza-4'-oxabicyclo[3.2.0]hept-3'-yl]-2(S)-(N-benzyloxycarbonyl-N-benzyl)amino-3(R)-benzyloxypropionate] | 3 (≈ 4.31 µM) | –
8 | N[C@H](C(=O)O)[C@@H](OCc1ccccc1)[C@H]1CN2C(=O)C[C@@H]2O1 [Compound 32b, 3-[(3'R,5'S)-7'-oxo-1'-aza-4'-oxabicyclo[3.2.0]hept-3'-yl]-2(S)-amino-3(R)-benzyloxypropionic acid] | 0.06 (≈ 0.196 µM) | Mortality in 12 days (Sarcoma 180; 0.1 mg/kg/day): 0/6; Mortality in 12 days (Sarcoma 180; 1.0 mg/kg/day): 0/6; Cell growth inhibition rate (Sarcoma 180; 0.1 mg/kg): 12%; Cell growth inhibition rate (Sarcoma 180; 1 mg/kg): 38%
9 | O=C(OCc1ccccc1)[C@H](O)[C@@H](O)[C@H]1CN2C(=O)C[C@@H]2O1 [Compound 4, benzyl(2R,3R)-2,3-dihydroxy-3-[(3'R,5'S)-7'-oxo-1'-aza-4'-oxabicylo[3.2.0]hept-3'-yl]propionate] | 0.07 (≈ 0.228 µM) | –
10 | O=C(OC(c1ccccc1)c1ccccc1)[C@H]([C@@H](OCc1ccccc1)[C@H]1CN2C(=O)C[C@@H]2O1)N(Cc1ccccc1)C(=O)OCc1ccccc1 [Compound 42, diphenylmethyl 3-[(3'R,5'S)-7'-oxo-1'-aza-4'-oxabicyclo[3.2.0]hept-3'-yl]-2(S)-(N-benzyloxycarbonyl-N-benzyl)amino-3(R)-benzyloxypropionate] | 3 (≈ 4.31 µM) | –
11 | N[C@H](C(=O)O)[C@@H](OCC1CC1)[C@H]1CN2C(=O)C[C@@H]2O1 [Compound 32e, 3-[(3'R,5'S)-7'-oxo-1'-aza-4'-oxabicyclo[3.2.0]hept-3'-yl]-2(S)-amino-3(R )-cyclopropylmethyloxypropionic acid] | 0.4 (≈ 1.48 µM) | –
12 | O=C(OCc1ccccc1)[C@H](O)[C@H](O)[C@H]1CN2C(=O)C[C@@H]2O1 [Compound 7, benzyl(2R,3S)-2,3-dihydroxy-3-[(3'R,5'S)-7'-oxo-1'-aza-4'-oxabicyclo[3.2.0]hept-3'-yl]propionate] | 0.09 (≈ 0.293 µM) | –
13 | N[C@H](C(=O)O)[C@@H](OCc1ccc(F)cc1)[C@H]1CN2C(=O)C[C@@H]2O1 [Compound 32c, 3-[(3'R,5'S)-7'-oxo-1'-aza-4'-oxabicyclo[3.2.0]hept-3'-yl]-2(S)-amino-3(R )-(4"-fluorobenzyl)oxy-propionic acid] | 0.04 (≈ 0.123 µM) | –
